Assay results: patent publication US5668165A, “Small molecule inhibition of RNA/ligand binding” (Scriptgen Pharmaceuticals, Inc., priority 1995, dated 1997)
“Also recorded” adds a separate entry of the source. Read-outs that look alike come from different tables or passages of the source. Starred links: 1 amine or outer side, 2 acyl side, 3 side chain; linkers in the order of their positions; H or OH if unused. Positions of bridges follow the written chain, without caps; N, C: chain ends. Non-standard residues stand in square brackets, D forms with d. Residues, ends and D or L forms follow the SMILES beside them. *: point of attachment. X1 = NC1=N[C@@H]([C@H](N[*:1])C(=O)[*:2])C[C@H](O)N1; ΔAla(Z-3-ureido) = NC(=O)N/C=C(\N)C(=O)O; β3hOrn = NCCC[C@H](N)CC(=O)*; Dap = NC[C@H](N)C(=O)O

What was measured:
[1] = target: T1, binding of HIV Rev protein to the HIV RRE (Human immunodeficiency virus type 1 group M subtype B, UniProt P04618); assay: Rev-RRE nitrocellulose filter-binding assay
T1 construct: made in house; host or cells: E. coli
Protocol: A 69-nt ^32 P-labelled RNA probe containing a high affinity Rev-binding site (Bartel et al., Cell 67:529, 1991 ) was incubated with purified E. coli-derived Rev protein in the absence and presence of increasing concentrations of Compound 15. Reactions conditions were those that maximize the specificity of the interaction between Rev and the RRE, i.e., 150 mM KCl and a 100-fold molar excess of tRNA.
After a 30-minute incubation at room temperature, a nitrocellulose filter-binding assay was performed to quantify the binding of Rev to the RRE (Daly et al., Biochem. 32:10497, 1993). In this assay, RNA is retained on the filter only by virtue of binding to Rev. Filter-associated radioactivity was quantified in a Wallac Microbeta counter. The fraction of input RNA retained on the filter was plotted as a function of Compound 15 concentration, and the IC50 (the concentration required to inhibit 50% Rev-RRE binding) was determined by linear regression.

[2] = system: binding of Rev to the RRE (67-nt RNA probe containing a high affinity Rev-binding site); parameters: species or system HIV; conditions: for concentration at which inhibitory to Rev binding: third group of aminoglycosides; for inhibiting the binding of Rev to the RRE: Rev/RRE binding inhibition assay, summary of thirteen 2-DOS aminoglycosides; for ability to inhibit Rev binding (inhibitory at any concentration tested): 67-nt 32P-labeled RNA probe, gel mobility shift
Protocol: To test whether antibiotics can block binding of Rev to the RRE, a 67-nt ^32 P-labeled RNA probe containing a high affinity Rev-binding site was incubated with purified E. coli derived Rev protein in the presence of various antibiotics. Binding of Rev to the RNA probe was quanitified by an RNA gel mobility shift assay.

[3] = Table 2, 2,5-Bis(3-amidinophenyl)furans, read-out: IC50 against Rev/RRE binding
[4] = Table 3, 2,5-Bis(3-bisamidinophenyl)thiophene
[5] = Table 3, 2,5-Bis(3-bisamidinophenyl)thiophene, read-out: IC50 against Rev/RRE binding

T1 sequence (P04618 whole entry, looked up): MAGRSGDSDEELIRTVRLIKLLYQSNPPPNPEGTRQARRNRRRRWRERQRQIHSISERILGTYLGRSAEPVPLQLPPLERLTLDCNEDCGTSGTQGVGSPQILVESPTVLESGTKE

CN(C)CCCNC(=N)c1cccc(-c2ccc(-c3cccc(C(=N)NCCCN(C)C)c3)o2)c1 [Example 15, 2,5-Bis [3-(3-N,N-dimethylaminopropylamidino)phenyl]furan]
IC50 ([1]; FIG. 2, 150 mM KCl, 100-fold molar excess of tRNA, read-out: IC50 (concentration required to inhibit 50% Rev-RRE binding)): 1 µM

CCN(CC)CCCNC(=N)c1cccc(-c2ccc(-c3cccc(C(=N)NCCCN(CC)CC)c3)o2)c1 [Example 16, 2,5-Bis[3-N,N-diethylaminopropylamidinophenyl]furan]
IC50 [1, 3]: 0.75 µM

CN(C)CCCCNC(=N)c1cccc(-c2ccc(-c3cccc(C(=N)NCCCCN(C)C)c3)o2)c1 [Example 17, 2,5-Bis[3-(4-N,N-dimethylaminobutyl-amidino)phenyl]furan]
IC50 [1, 3]: 1.7 µM

CN(C)CCCCCCNC(=N)c1cccc(-c2ccc(-c3cccc(C(=N)NCCCCCCN(C)C)c3)o2)c1 [Example 18, 2,5-Bis[3-(6-N,N-dimethylaminohexylamidino)phenyl]furan]
IC50 [1, 3]: 3.9 µM

c1cc(C2=NCCN2)cc(-c2ccc(-c3cccc(C4=NCCN4)c3)o2)c1 [Example 19, 2,5-Bis(3-imidazolinophenyl)furan]
IC50 [1, 3]: 4 µM

N=C(NCc1cccnc1)c1cccc(-c2ccc(-c3cccc(C(=N)NCc4cccnc4)c3)s2)c1 [Example 20, 2,5-Bis[3-pyridylmethylamidinophenyl]thiophene]
IC50 against Rev/RRE binding [1, 4]: not active

CN1CCCC1CCNC(=N)c1cccc(-c2ccc(-c3cccc(C(=N)NCCC4CCCN4C)c3)s2)c1 (stereo not drawn) [Example 21, 2,5-Bis{3-[2-(1-methyl-2-pyrrolidinyl)ethylamidino]phenyl}thiophene]
IC50 [1, 5]: 2.4 µM

CCN(CC)CCCNC(=N)c1cccc(-c2ccc(-c3cccc(C(=N)NCCCN(CC)CC)c3)s2)c1 [Example 22, 2,5-Bis-[3-(3-N,N-diethylaminopropyl-amidino)phenyl]thiophene]
IC50 [1, 5]: 2.8 µM

N=C(NCCN1CCCC1)c1cccc(-c2ccc(-c3cccc(C(=N)NCCN4CCCC4)c3)s2)c1 [Example 23, 2,5-Bis[3-(2-pyrrolidinoethylamidino)phenyl]thiophene]
IC50 against Rev/RRE binding [1, 4]: not active

NCC[C@H](O)C(=O)N[C@@H]1C[C@H](N)[C@@H](O[C@H]2O[C@H](CN)[C@@H](O)[C@H](O)[C@H]2O)[C@H](O)[C@H]1O[C@H]1O[C@H](CO)[C@@H](O)[C@H](N)[C@H]1O [amikacin]
concentration at which inhibitory to Rev binding ([2]; 67-nt RNA probe): 100 μm
inhibiting the binding of Rev to the RRE [2]: effective

CC1(C)S[C@@H]2[C@H](NC(=O)[C@H](N)c3ccccc3)C(=O)N2[C@H]1C(=O)O [ampicilin]
ability to inhibit Rev binding (inhibitory at any concentration tested) [2]: no

CC1(C)S[C@@H]2[C@H](NC(=O)C(C(=O)O)c3ccccc3)C(=O)N2[C@H]1C(=O)O (stereo partly drawn) [carbenicilin]
ability to inhibit Rev binding (inhibitory at any concentration tested) [2]: no

O=C(N[C@H](CO)[C@H](O)c1ccc([N+](=O)[O-])cc1)C(Cl)Cl [chloramphenicol]
ability to inhibit Rev binding (inhibitory at any concentration tested) [2]: no

CCC[C@@H]1C[C@@H](C(=O)N[C@@H]([C@H]2O[C@H](SC)[C@H](O)[C@@H](O)[C@H]2O)[C@H](C)Cl)N(C)C1 [clindamycin A]
ability to inhibit Rev binding (inhibitory at any concentration tested) [2]: no

CN[C@@H]1[C@H](O[C@H]2[C@H](O[C@H]3[C@H](O)[C@@H](O)[C@H](NC(=N)N)[C@@H](O)[C@@H]3NC(=N)N)O[C@@H](C)[C@]2(O)CO)O[C@@H](CO)[C@H](O)[C@H]1O [dihydrostreptomycin]
ability to inhibit Rev binding (inhibitory at any concentration tested) [2]: no inhibitory activity at any concentration tested

Cn1cc(NC(=O)c2cc(NC(=O)c3cc(NC=O)cn3C)cn2C)cc1C(=O)NCCC(=N)N [distamycin A]
ability to inhibit Rev binding (inhibitory at any concentration tested) [2]: no

CC[C@H]1OC(=O)[C@H](C)[C@@H](O[C@H]2C[C@@](C)(OC)[C@@H](O)[C@H](C)O2)[C@H](C)[C@@H](O[C@@H]2O[C@H](C)C[C@H](N(C)C)[C@H]2O)[C@](C)(O)C[C@@H](C)C(=O)[C@H](C)[C@@H](O)[C@]1(C)O [erythromycin]
ability to inhibit Rev binding (inhibitory at any concentration tested) [2]: no

CN[C@H]1C[C@@H](N)[C@H](O)[C@@H](O[C@@H]2O[C@H](CO)[C@H](O)[C@@H]3OC4(O[C@H]23)O[C@H]([C@@H](N)CO)[C@H](O)[C@H](O)[C@H]4O)[C@@H]1O (stereo partly drawn) [hygromyoin B, hygromycin B]
ability to inhibit Rev binding (inhibitory at any concentration tested) [2]: no inhibitory activity at any concentration tested

NC[C@H]1O[C@H](O[C@H]2[C@H](O)[C@@H](O[C@H]3O[C@H](CO)[C@@H](O)[C@H](N)[C@H]3O)[C@H](N)C[C@@H]2N)[C@H](N)[C@@H](O)[C@@H]1O [kanamycin B]
concentration at which inhibitory to Rev binding ([2]; 67-nt RNA probe): 100 μm
inhibiting the binding of Rev to the RRE [2]: effective

C[C@H]1O[C@H](O[C@H]2[C@H](O)[C@@H](O)[C@@H](O)[C@H](O)[C@@H]2O)[C@@H](N)C[C@@H]1NC(=N)C(=O)O [kasugamycin]
ability to inhibit Rev binding (inhibitory at any concentration tested) [2]: no inhibitory activity at any concentration tested

CCC[C@@H]1C[C@@H](C(=O)N[C@@H]([C@H]2O[C@H](SC)[C@H](O)[C@@H](O)[C@H]2O)[C@@H](C)O)N(C)C1 [lincomycin]
ability to inhibit Rev binding (inhibitory at any concentration tested) [2]: no

NC[C@@H]1O[C@H](O[C@H]2[C@@H](O)[C@H](O[C@@H]3[C@@H](O)[C@H](N)C[C@H](N)[C@H]3O[C@H]3O[C@H](CO)[C@@H](O)C[C@H]3N)O[C@@H]2CO)[C@H](N)[C@@H](O)[C@@H]1O[C@H]1O[C@H](CO)[C@@H](O)[C@H](O)[C@@H]1O [lividomycin A]
ability to inhibit Rev binding (inhibitory at any concentration tested) [2]: significant inhibitory ability
concentration that achieves inhibition of Rev binding ([2]; 67-nt RNA probe, neomycin B: complete inhibition): 10 µM
inhibiting the binding of Rev to the RRE [2]: exceptional inhibitory potential

NC[C@H]1O[C@H](O[C@H]2[C@H](O)[C@@H](O)[C@H](N)C[C@@H]2N)[C@H](N)[C@@H](O)[C@@H]1O [neamine]
concentration at which inhibitory to Rev binding ([2]; 67-nt RNA probe): 100 μm
inhibiting the binding of Rev to the RRE [2]: effective

NC[C@@H]1O[C@H](O[C@H]2[C@@H](O)[C@H](O[C@@H]3[C@@H](O)[C@H](N)C[C@H](N)[C@H]3O[C@H]3O[C@H](CO)[C@@H](O)[C@H](O)[C@H]3N)O[C@@H]2CO)[C@H](N)[C@@H](O)[C@@H]1O [paromomycin]
ability to inhibit Rev binding (inhibitory at any concentration tested) [2]: no inhibitory activity at any concentration tested; also recorded: completely inactive

NC[C@H]1O[C@H](O[C@H]2[C@H](O[C@@H]3O[C@H](CO)[C@@H](O)[C@H]3O)[C@@H](O)[C@H](N)C[C@@H]2N)[C@H](N)[C@@H](O)[C@@H]1O [ribostamycin]
concentration at which inhibitory to Rev binding ([2]; 67-nt RNA probe): 100 μm
inhibiting the binding of Rev to the RRE [2]: effective

CN[C@@H]1[C@@H](O)[C@@H](O[C@@H]2[C@@H](O)[C@H](O[C@H]3OC(CN)=CC[C@H]3N)[C@@H](N)C[C@H]2N)OC[C@]1(C)O [sisomicin]
concentration at which inhibitory to Rev binding ([2]; 67-nt RNA probe): 100 μm
inhibiting the binding of Rev to the RRE [2]: effective

CN[C@@H]1[C@H](O)[C@H](NC)[C@H]2O[C@@]3(O)C(=O)C[C@@H](C)O[C@H]3O[C@@H]2[C@H]1O [specitinomycin]
ability to inhibit Rev binding (inhibitory at any concentration tested) [2]: no inhibitory activity at any concentration tested
ability to inhibit Rev binding (inhibitory at any concentration tested) ([2]; listed as spectinoymycin): inactive

[H]/N=C(/N)N[C@H]1[C@H](O)[C@@H](O)[C@H](O[C@@H]2O[C@@H](C)[C@](O)(C=O)[C@H]2O[C@@H]2O[C@@H](CO)[C@H](O)[C@@H](O)[C@@H]2NC)[C@@H](N/C(N)=N\[H])[C@@H]1O [stretomycin, streptomycin]
ability to inhibit Rev binding (inhibitory at any concentration tested) [2]: no inhibitory activity at any concentration tested
ability to inhibit Rev binding (inhibitory at any concentration tested) ([2]; listed as streptomycin): inactive

CN(C)[C@@H]1C(=O)C(C(N)=O)=C(O)[C@@]2(O)C(=O)C3=C(O)c4c(O)cccc4[C@@](C)(O)[C@H]3C[C@@H]12 [tetracycline]
ability to inhibit Rev binding (inhibitory at any concentration tested) [2]: no

NCCC[C@H](N)CC(=O)N[C@H]1CNC(=O)[C@H]([C@H]2C[C@H](O)NC(N)=N2)NC(=O)/C(=C/NC(N)=O)NC(=O)[C@H](CO)NC(=O)[C@H](CO)NC1=O [viomycin] (β3hOrn-[Dap]SS[ΔAla(Z-3-ureido)][X1]; lactam 1-C)
ability to inhibit Rev binding (inhibitory at any concentration tested) [2]: no

butirosin
ability to inhibit Rev binding (inhibitory at any concentration tested) [2]: no inhibitory activity at any concentration tested

capreomycin
ability to inhibit Rev binding (inhibitory at any concentration tested) [2]: no

chromomycin A
ability to inhibit Rev binding (inhibitory at any concentration tested) [2]: no

gentamicin C
concentration at which inhibitory to Rev binding ([2]; 67-nt RNA probe): 100 μm
inhibiting the binding of Rev to the RRE [2]: effective

olivomycin
ability to inhibit Rev binding (inhibitory at any concentration tested) [2]: no

thiostreption
ability to inhibit Rev binding (inhibitory at any concentration tested) [2]: no

tunicamycin
ability to inhibit Rev binding (inhibitory at any concentration tested) [2]: no

vineomycin
ability to inhibit Rev binding (inhibitory at any concentration tested) [2]: no
